The source of these data is patent publication US6514967B1 (priority 1997, dated 2003).

Read-outs that look alike come from different tables or passages of the source.

The target of one data set is xanthine oxidase (Homo sapiens, UniProt P47989). Briefly: Action of the derivatives on xanthine oxidase. It is filed as biochemical. The following applies: for inhibition at 100 µM: read-out: % inhibition 100 μM; for inhibition at 500 µM: read-out: % inhibition 500 μM. As to the method:
Action of the derivatives on xanthine oxidase:
(Free Radical Biology & Medicine, Vol 20, No 1, pp.35-43, 1996)
[…] of xanthine 20 mM in soda 0.1N and […] of the test product in phosphate buffer at pH 7.4 were placed in a final volume of 2 ml. Reaction is started by adding […] of solution of xanthine oxidase at 0.56 U/ml. Formation of […] is monitored by UV spectroscopy at 290 nm. Allopurinol is a reference inhibitor.

Data set [1] can be described thus: Chemical test of capture of OH• radicals (deoxyribose competition). It counts as biochemical. The following applies: rate constant of reaction of the competitor with OH•, competition with 2-deoxyribose, UV at 532 nm. As to the method:
A) Chemical test of capture of OH^• radicals:
(Free Rad. Res. Comms., Vol. 14, Nos. 5-6, pp. 363-372)
[…] of buffer (30 mM Na2HPO4.7H2O, 40 mM NaCl, 0.1 mM EDTA), 125 ml of deoxyribose at 2.10^−3 mM and 125 ml of 4-times concentrated solution of radical inhibitor (final concentration from 0 to 0.5 mM) were placed in glass haemolysis tubes cooled on an ice bath. […] of FeSO4 at 10^−3 mM (in water) is added at time 0. After 15 min of incubation the reaction is stopped with 250 ml of trichloroacetic acid at 3%, to which is added 250 ml of solution of thiobarbituric acid at 1.5% (in water). The tubes are kept at 100° C. for 10 min then cooled for detection with UV at 532 nm. The linear relation A0/A=1+ks/dkr [(competitor)/(2-deoxyribose)] was used, where A0 and A denote the absorbances in the absence and in the presence of competitor, ks is the rate constant of reaction of the competitor with OH• and kdr=1.9*10^9 M^−1 sec^−1 is the rate constant of reaction of 2-deoxyribose with OH•. Thus ks is equal to the gradient of the straight line A0/A f((competitor)/(2-deoxyribose)) multiplied by kdr.

For the next data set, the system named is astrocytes. Description: Recapture of glutamate by cultures of astrocytes, radicals generated by xanthine/xanthine oxidase (X/XO). It counts as cell-based, rats. As to the method:
B) Procedure with cultures of astrocytes and generation of radicals by the xanthine/xanthine oxidase (X/XO) pair
400 μl of D-lysine at 25 μg/ml (9 ml of D-lysine at 100 μg per ml of borate buffer (0.1M pH 8.4)+27 ml of water) is placed in each well of 24-well culture plates. The wells are left in the stove (5% CO2, 37° C.) over night. Each well is rinsed with 2 times 750 μl of Hanks before receiving the culture medium. 3 lateral demi cortices are taken from rats aged 1 to 2 days. (The hippocampus, the striatum and the meninges are removed). The demi cortices are placed in 2 ml of trypsin-EDTA then put in the stove for 30 min. The action of the trypsin is stopped with 10% of decomplemented foetal calf serum (200 μl). The serum and the trypsin are removed then the cells are dissociated with a pipette in 10 ml of medium (MEM 225 ml+FCS-D 25 ml+glucose 20% 7.5 ml) (MEM=minimum essential medium; FCS-D=decomplemented foetal calf serum). The culture medium is made up to 30 ml, stirred and placed at 400 μl per well. The medium is changed twice weekly for 18 days. The last replacement is effected 4 days prior to the treatment, with a medium without decomplemented foetal calf serum. (MEM 31.5 ml+glucose 20% 1.05 ml).
Treatment takes place on the 18th or 19th day.
Each well is washed with 750 μl of buffer (NaCl 124 mM, KCl 4.6 mM, CaCl2 1.2 mM, MgCl2 1.3 mM, KH2PO4 0.416 mM, NaHCO3 26.75 mM, glucose 10 mM; pH 7.4) for 10 min. The cells are incubated in the presence of xanthine (500 μM) and of the test product (from 0 to 1 mM). After 10 min, xanthine oxidase is added (50 mU/ml) and it is again left to incubate for 10 min. Release of radicals is stopped by washing 3 times with catalase (3000 U/ml). The glutamate is then recaptured in a solution of radioactive glutamate (^3H) at 40 μM (isotopic dilution 1/20000). Recapture is stopped by washing 3 times with the cold buffer. The cells are detached with soda 0.2N and the radioactivity is measured.
Firstly we checked that the inhibition of recapture observed in the presence of X/XO is indeed due to a radical process. For this we replaced the test products with two enzymes: SOD (SuperOxide Dismutase) and catalase (FIG. 1). […] The Fenton reaction converting hydrogen peroxide to OH• is thus short-circuited. […] However, as there seems to be sufficient reducing agent in the medium to promote the formation of H2O2 starting from O2^•^−, it appears likely that a substantial proportion of H2O2 gives OH• (a highly reactive radical).
FIGS. 3 to 8 are the mean of at least 4 independent tests in which the protective power of IC180, IC023, IC241, IC2-16, IC178, IC140, IC209, IC237, IC146, IC193, IC194, IC242, IC207, IC2-19, IC219, IC2-21, and IC249, as a function of the dose, was tested against a fixed concentration of radicals, and therefore of X/XO. In the case of IC180, the increase in recapture appears to be linear (up to 100% is found in some tests). […] Since IC023 alone only becomes “toxic” starting from 1 mM, the variation observed starting from 0.6 mM might reflect the existence of metabolites that are poorly tolerated by the cells. The derivative morpholine IC180 is more interesting.

Where [2] appears, read: product at 100 μM, UV at 290 nm.
Where [3] appears, read: product at 500 μM, UV at 290 nm.

Chain of xanthine oxidase (P47989 whole entry, species assumed): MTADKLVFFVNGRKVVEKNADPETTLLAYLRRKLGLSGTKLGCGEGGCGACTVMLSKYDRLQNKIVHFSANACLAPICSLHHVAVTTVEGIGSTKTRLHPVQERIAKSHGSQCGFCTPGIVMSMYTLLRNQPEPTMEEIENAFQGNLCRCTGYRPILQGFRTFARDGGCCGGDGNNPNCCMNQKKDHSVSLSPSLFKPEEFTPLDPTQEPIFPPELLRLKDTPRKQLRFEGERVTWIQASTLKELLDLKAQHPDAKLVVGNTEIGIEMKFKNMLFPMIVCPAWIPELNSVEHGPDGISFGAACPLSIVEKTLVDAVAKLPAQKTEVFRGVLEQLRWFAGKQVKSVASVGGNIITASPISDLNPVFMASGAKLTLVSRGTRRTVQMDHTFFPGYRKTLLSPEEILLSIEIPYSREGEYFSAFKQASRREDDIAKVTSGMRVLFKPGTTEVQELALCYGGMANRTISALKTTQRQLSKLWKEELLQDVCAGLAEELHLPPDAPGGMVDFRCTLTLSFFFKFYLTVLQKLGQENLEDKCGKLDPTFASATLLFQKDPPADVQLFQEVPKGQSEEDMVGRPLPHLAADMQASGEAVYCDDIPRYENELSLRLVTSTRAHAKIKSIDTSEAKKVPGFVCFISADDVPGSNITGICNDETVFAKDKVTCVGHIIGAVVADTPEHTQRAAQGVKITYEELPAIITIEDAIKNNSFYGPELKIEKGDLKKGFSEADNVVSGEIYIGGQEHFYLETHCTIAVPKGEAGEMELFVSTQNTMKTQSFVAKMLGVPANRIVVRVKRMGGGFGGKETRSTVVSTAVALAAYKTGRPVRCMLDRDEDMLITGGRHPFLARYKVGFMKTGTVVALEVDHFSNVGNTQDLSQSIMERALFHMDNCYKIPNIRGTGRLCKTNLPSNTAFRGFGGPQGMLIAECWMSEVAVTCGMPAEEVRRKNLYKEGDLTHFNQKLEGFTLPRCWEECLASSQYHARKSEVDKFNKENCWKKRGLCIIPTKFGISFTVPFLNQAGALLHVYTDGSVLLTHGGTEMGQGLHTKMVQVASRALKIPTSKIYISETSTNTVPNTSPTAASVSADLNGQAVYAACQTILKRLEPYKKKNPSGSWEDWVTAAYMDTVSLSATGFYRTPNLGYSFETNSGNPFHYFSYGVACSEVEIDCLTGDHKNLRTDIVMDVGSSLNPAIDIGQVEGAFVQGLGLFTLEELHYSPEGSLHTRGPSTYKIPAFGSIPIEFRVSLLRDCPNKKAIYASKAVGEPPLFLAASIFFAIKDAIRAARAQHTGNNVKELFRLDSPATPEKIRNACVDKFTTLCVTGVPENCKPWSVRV

As for `Oc1ncnc2[nH]ncc12` [Allopurinol, reference compound], at xanthine oxidase, the inhibition at 100 µM is 92% and the inhibition at 500 µM amounted to 90%.
Turning to `O=C[C@@H](O)[C@@H](O)[C@H](O)[C@H](O)CO` [D-mannose, reference compound], the “ks (10^−9M^−1 sec^−1) (±SEM)” value in data set [1] is 0.94±0.06 10^−9M^−1 sec^−1.
In the case of `Cl.c1cc2c(s1)C(N1CCOCC1)CCC2` (stereo not drawn) [IC2-16], the “ks (10^−9M^−1 sec^−1) (±SEM)” value in data set [1] is on record as 3.33 ± 0.15 10^−9M^−1 sec^−1.
For the molecule `c1cc2c(s1)CCCC2N1CCCCC1` (stereo not drawn) [IC023, piperidino-4-tetrahydro-4,5,6,7-benzothiophene], the inhibition at 100 µM at xanthine oxidase was -6%. The “ks (10^−9M^−1 sec^−1) (±SEM)” value in data set [1] is listed as 3.61 ± 0.16 10^−9M^−1 sec^−1. Further, in the data set with astrocytes (fixed concentration of X/XO), the “% recapture from which the opposite effect is observed” value was not below 15%. Also, in the data set on astrocytes (in presence of X/XO), the “concentration from which the variation (opposite effect) is observed” value was not below 0.6 mM. Also, in the data set on astrocytes (product alone, astrocytes), the “concentration from which the product alone becomes "toxic"” value is not below 1000 µM.
Turning to `Cl.NC1CCCc2sccc21` (stereo not drawn) [IC088, amino-4-tetrahydro-4,5,6,7-benzothiophene], the inhibition at 100 µM at xanthine oxidase (setting [2]) was -15%. For the same molecule, the “ks (10^−9M^−1 sec^−1) (±SEM)” value in data set [1] is 3.37 ± 0.25 10^−9M^−1 sec^−1.
Take `Cl.NC1CCCc2ccsc21` (stereo not drawn) [IC178, amino-7-tetrahydro-4,5,6,7-benzothiophene]: the “ks (10^−9M^−1 sec^−1) (±SEM)” value in data set [1] is 2.76 ± 0.06 10^−9M^−1 sec^−1.
On to `Cl.c1cc2c(s1)CCCC2N1CCSCC1` (stereo not drawn) [IC193, thiomorpholine-4-tetrahydro-4,5,6,7-benzothiophene], for which the inhibition at 100 µM on xanthine oxidase (setting [2]) was -7%. Also, on xanthine oxidase (setting [3]), the inhibition at 500 µM is -2%. Also, the “ks (10^−9M^−1 sec^−1) (±SEM)” value in data set [1] was 3.41 ± 0.25 10^−9M^−1 sec^−1.
In the same order, the values of `CN1CCN(C2CCCc3sccc32)CC1` (stereo not drawn) [IC194, N-methyl-piperazine-4-tetrahydro-4,5,6,7-benzothiophene] are -15%, 10% and 3.50 ± 0.23 10^−9M^−1 sec^−1.
Regarding `Cl.OC1CCN(C2CCCc3sccc32)CC1` (stereo not drawn) [IC209, (4 hydroxy-piperidine)-4-tetrahydro-4,5,6,7-benzothiophene], in data set [1], the “ks (10^−9M^−1 sec^−1) (±SEM)” value is 3.27 ± 0.50 10^−9M^−1 sec^−1.
As to `Cl.c1cc2c(s1)SCCC2N1CCCCC1` (stereo not drawn) [IC237, piperidino-4-tetrahydro-4,5,6,7-thio-7-benzothiophene], on xanthine oxidase, the inhibition at 100 µM was -9% and the inhibition at 500 µM was -8%. Moreover, the “ks (10^−9M^−1 sec^−1) (±SEM)” value in data set [1] was 3.45 ± 0.19 10^−9M^−1 sec^−1.
Consider `Cl.c1cc2c(s1)SCCC2N1CCOCC1` (stereo not drawn) [IC241, morpholine-4 tetrahydro-4,5,6,7-thio-7-benzothiophene], for which the inhibition at 100 µM on xanthine oxidase (setting [2]) amounted to 7%. Besides, the inhibition at 500 µM at xanthine oxidase (setting [3]) was -8%. The “ks (10^−9M^−1 sec^−1) (±SEM)” value in data set [1] was 3.01 ± 0.14 10^−9M^−1 sec^−1.
As to `CN1CCN(C2CCSc3sccc32)CC1` (stereo not drawn) [IC242, (N-methyl piperazine)-4-tetrahydro-4,5,6,7-thio-7-benzothiophene], the “ks (10^−9M^−1 sec^−1) (±SEM)” value in data set [1] is on record as 3.00 ± 0.19 10^−9M^−1 sec^−1.
In the case of `O=C(O)c1ccccc1O` [ac.salicyl., salicylic acid, reference compound], the “ks (10^−9M^−1 sec^−1) (±SEM)” value was 3.02 ± 0.18 10^−9M^−1 sec^−1 in data set [1] and 3.02±0.18 10^−9M^−1 sec^−1 in data set [1] (listed as salicylic acid).
In the case of `O=C1O[C@H]([C@@H](O)CO)C(O)=C1O` [vitamin C, reference compound], the “ks (10^−9M^−1 sec^−1) (±SEM)” value in data set [1] is listed as 1.87±0.17 10^−9M^−1 sec^−1.
For the molecule catalase, in the data set with astrocytes (in presence of X/XO, control, FIG. 1), the “recapture of glutamate with enzyme in place of test product (in words)” value is given as “allows a normal degree of recapture to be attained”.
